{"source": "patent US20090088380A1", "about": "“GHRH ANALOGS AND THERAPEUTIC USES THEREOF” (priority 2007, published 2009)", "key": {"Sprague-Dawley rats": {"tested_on": "Sprague-Dawley rats", "settings": "rat, in vivo", "method": "In order to assess such use of the GHRH analogs, the following experiments were undertaken. More specially, the goal was to assess the pharmacodynamic and pharmacokinetic profiles and acute toxicity of GHRH analog #5 when administered once by subcutaneous or intravenous injection to female Sprague-Dawley rats followed by a 14-day observation period and the pharmacodynamic profile in a male Beagle dog when the GHRH analog was administered at escalating doses to the same dog by subcutaneous injection with at least 2-day washout period. The above GHRH analog is a variation of a synthetic acetate salt of an amidated synthetic 29-amino acid peptide that corresponds to the amino-terminal segment of the naturally-occurring human growth hormone—releasing hormone (GHRH) with four amino acid substitutions in positions 2, 10, 15, and 22.\nHuman GHRH analog #5 in 0.9% sodium chloride for injection USP was administered once either by intravenous (IV) or subcutaneous (SC) injection to female rats followed by a 14-day observation period, as shown in Table 2. Prior to administration, all dosing formulations were filtered using a 0.22 μm filter to ensure sterility. The actual amount of GHRH analog #5 administered was calculated and adjusted based on the animal's most recent body weight. Dosing started at approximately the same time each day, commencing at 9:00 am ±30 minutes."}, "[1]": {"tested_on": "Salmonella strains, Chinese Hamster Ovary cells, erythrocyte micronucleus test", "test": "Mutagenicity tests"}, "[2]": {"tested_on": "malnourished subjects with CKD", "test": "Phase II CKD: bioimpedance", "type": "in vivo, human", "settings": "for Basal metabolic rate: median / Body cell mass: median / Extracellular cell mass: median / Extracellular water: median / Intracellular water: median / Total body water: median / Fat free mass (%): median / Fat free mass (kg): median / Fat mass (%): median / Fat mass (kg): median: ITT; for Fat free mass (%): median / Fat free mass (kg): median / Fat mass (%): median / Fat mass (kg): median: bioimpedance", "method": "Height (cm) was measured only at the screening visit. Anthrompometry was measured at every visit from baseline to follow-up. Anthropometric measurements included weight, skinfold thicknesses and arm circumference. Weight (kg) was measured using a high performance scale. Subjects were asked to stand on the scale with minimal clothing, no shoes, and with even weight on both feet. Skinfold thickness (mm) was measured by using Harpenden Skinfold Callipers at 4 sites: biceps, triceps, suprailiacal and subscapular. Arm circumference (cm) was measured using a tape measure that is flexible, inelastic and metric. The site measured was marked, and the tape was not to be too tight or too loose, and to lie flat on the skin, and be horizontal. Bioimpedance measurements were made to measure body composition at every visit from baseline to Day 28. The bioimpedance scale (RJL Systems) was used. Resistance, reactance and the phase angle were recorded.\nBioelectrical impedance (BIA) was used to evaluate body water content (total body water %, extracellular water and intracellular water), fat free mass and fat mass using Maltron BioScan 916 and BIA 450 apparatus from Biodynamics Corp. The method is fast, precise and noninvasive.\nBioimpedance measurements were done at every visit from baseline (day 0) on days 7, 14, 21 to 28. Weight and FFM (kg) were measured and FM (kg, %) and FFM (%) were derived. There was an increase from baseline in median FFM (3.3 kg) and decrease in median FM (1.8 kg) in all except one (11/12) patients in the GHRH(1-29)NH2 synthetic analog group on day 28 while there was a decrease in median FFM (0.8 kg) and increase in median FM (1.3 kg) in the placebo arm."}}, "note": "Several values for one entry are separate records, joined by “and”; a condition that tells them apart may be missing. Equal entries are not always repeated. Non-standard residues stand in square brackets, D forms with d. Residues, ends and D or L forms follow the SMILES beside them.", "data": [{"molecule": "CC[C@H](C)[C@H](NC(=O)[C@H](C)NC(=O)[C@H](CC(=O)O)NC(=O)[C@@H](C)NC(=O)[C@@H](N)Cc1ccc(O)cc1)C(=O)N[C@@H](Cc1ccccc1)C(=O)N[C@H](C(=O)N[C@@H](CC(N)=O)C(=O)N[C@@H](CO)C(=O)N[C@H](Cc1ccc(O)cc1)C(=O)N[C@@H](CCCNC(=N)N)C(=O)N[C@@H](CCCCN)C(=O)N[C@H](C(=O)N[C@@H](CC(C)C)C(=O)N[C@H](C)C(=O)N[C@@H](CCC(N)=O)C(=O)N[C@@H](CC(C)C)C(=O)N[C@@H](CO)C(=O)N[C@@H](C)C(=O)N[C@@H](CCCNC(=N)N)C(=O)N[C@@H](CCCCN)C(=O)N[C@@H](CCCCN)C(=O)N[C@@H](CC(C)C)C(=O)N[C@@H](CCC(N)=O)C(=O)N[C@@H](CC(=O)O)C(=O)N[C@H](C(=O)N[C@@H](CCSC)C(=O)N[C@@H](CO)C(=O)N[C@@H](CCCNC(=N)N)C(N)=O)[C@@H](C)CC)C(C)C)[C@@H](C)O", "note": "[GHRH analog #5, [D-Ala^2, D-Tyr^10, D-Ala^15, Lys^22] hGHRH(1-29)-NH2] (H-Y[dA]DAIFTNS[dY]RKVL[dA]QLSARKKLQDIMSR-NH2)", "values": [{"measurement": "Treatment-related clinical signs", "setting": "Sprague-Dawley rats", "value": "No treatment-related clinical signs were observed"}, {"measurement": "Clastogenicity", "setting": "[1]", "value": "not a clastogenic agent"}, {"measurement": "Mutagenicity", "setting": "[1]; Salmonella strains, CHO cells, erythrocyte micronucleus test", "value": "no evidence of mutagenicity"}, {"measurement": "Median FFM", "setting": "[2]; BIA, day 7", "value": 50.4, "unit": "kg"}, {"measurement": "Median FM", "setting": "[2]; BIA, day 7", "value": 13.3, "unit": "kg"}, {"measurement": "Median FFM", "setting": "[2]; BIA, day 14", "value": 50.8, "unit": "kg"}, {"measurement": "Median FM", "setting": "[2]; BIA, day 14", "value": 13.4, "unit": "kg"}, {"measurement": "Median FFM", "setting": "[2]; BIA, day 21", "value": 50.1, "unit": "kg"}, {"measurement": "Median FM", "setting": "[2]; BIA, day 21", "value": 12.6, "unit": "kg"}, {"measurement": "Decrease from baseline in median FM", "setting": "[2]; BIA, day 28", "value": 1.8, "unit": "kg"}, {"measurement": "Increase from baseline in median FFM", "setting": "[2]; BIA, day 28", "value": 3.3, "unit": "kg"}, {"measurement": "Increase in median BMR from baseline", "setting": "[2]; BIA, day 28", "value": 49, "unit": "kcal"}, {"measurement": "Basal metabolic rate: median", "setting": "[2]; Baseline", "value": 1441, "unit": "kcal"}, {"measurement": "Body cell mass: median", "setting": "[2]; Baseline", "value": "23 kg and 23.0 kg"}, {"measurement": "Extracellular cell mass: median", "setting": "[2]; Baseline", "value": 23.5, "unit": "kg"}, {"measurement": "Extracellular water: median", "setting": "[2]; Baseline", "value": 17.7, "unit": "L"}, {"measurement": "Intracellular water: median", "setting": "[2]; Baseline", "value": 17.0, "unit": "L"}, {"measurement": "Total body water: median", "setting": "[2]; Baseline", "value": 35.8, "unit": "L"}, {"measurement": "Basal metabolic rate: median", "setting": "[2]; Day 28", "value": 1473, "unit": "kcal"}, {"measurement": "Body cell mass: median", "setting": "[2]; Day 28", "value": 22.6, "unit": "kg"}, {"measurement": "Extracellular cell mass: median", "setting": "[2]; Day 28", "value": 24.7, "unit": "kg"}, {"measurement": "Extracellular water: median", "setting": "[2]; Day 28", "value": 19.1, "unit": "L"}, {"measurement": "Intracellular water: median", "setting": "[2]; Day 28", "value": 15.8, "unit": "L"}, {"measurement": "Total body water: median", "setting": "[2]; Day 28", "value": 38.1, "unit": "L"}, {"measurement": "Ratio of median ECW/ICW", "setting": "[2]; baseline", "value": 1.04}, {"measurement": "Fat free mass (%): median", "setting": "[2]; Baseline", "value": 75.3, "unit": "%"}, {"measurement": "Fat free mass (kg): median", "setting": "[2]; Baseline", "value": 48.8, "unit": "kg"}, {"measurement": "Fat mass (%): median", "setting": "[2]; Baseline", "value": 24.7, "unit": "%"}, {"measurement": "Fat mass (kg): median", "setting": "[2]; Baseline", "value": 16.0, "unit": "kg"}, {"measurement": "Fat mass (kg): median", "setting": "[2]; Baseline, listed as GHRH(1-29)NH2 synthetic analog", "value": 16, "unit": "kg"}, {"measurement": "Fat free mass (%): median", "setting": "[2]; Day 28", "value": 78.6, "unit": "%"}, {"measurement": "Fat free mass (kg): median", "setting": "[2]; Day 28", "value": 51.1, "unit": "kg"}, {"measurement": "Fat mass (%): median", "setting": "[2]; Day 28", "value": 21.4, "unit": "%"}, {"measurement": "Fat mass (kg): median", "setting": "[2]; Day 28", "value": 12.2, "unit": "kg"}, {"measurement": "Median BCM", "setting": "[2]; day 7", "value": 25.1, "unit": "kg"}, {"measurement": "Median ECM", "setting": "[2]; day 7", "value": 24.4, "unit": "kg"}, {"measurement": "Median increase in BCM from baseline", "setting": "[2]; day 7", "value": 1.3, "unit": "kg"}, {"measurement": "Median increase in ECM from baseline", "setting": "[2]; day 7", "value": 0.8, "unit": "kg"}, {"measurement": "Median BCM", "setting": "[2]; day 14", "value": 24.3, "unit": "kg"}, {"measurement": "Median ECM", "setting": "[2]; day 14", "value": 25.4, "unit": "kg"}, {"measurement": "Median BCM", "setting": "[2]; day 21", "value": 23.2, "unit": "kg"}, {"measurement": "Median ECM", "setting": "[2]; day 21", "value": 25.9, "unit": "kg"}, {"measurement": "Increase in median ECW from baseline", "setting": "[2]; day 28", "value": 1.9, "unit": "L"}, {"measurement": "Increase in median ICW from baseline", "setting": "[2]; day 28", "value": 1.2, "unit": "L"}, {"measurement": "Increase in median total body water from baseline", "setting": "[2]; day 28", "value": 3, "unit": "L"}, {"measurement": "Median increase in BCM from baseline", "setting": "[2]; day 28", "value": 1.8, "unit": "kg"}, {"measurement": "Median increase in ECM from baseline", "setting": "[2]; day 28", "value": 1.7, "unit": "kg"}, {"measurement": "Ratio of median ECW/ICW", "setting": "[2]; day 28", "value": 1.2}]}]}
